Source: patent US8080517B2, “Cell-permeable peptide inhibitors of the JNK signal transduction pathway” (Xigen SA, priority 2005, dated 2011)
[ ]: non-standard residue; d: D form.

Columns and labels:
[1] = tested on: JNK; conditions: JBDs; cited from earlier work
[2] = Focal cerebral ischaemia, transient MCAO model, infarct volume; format: in vivo, male ICR-CD1 mice
Excerpt: Evaluation of neuroprotection by inventive chimeric peptides after iv administration against focal cerebral ischaemia, in a transient MCAO model (see FIG. 4).
Transient ischemia in adult mice. Using male ICR-CD1 mice (6 weeks old; 18-37 g; Harlan), we provoked ischemia by introducing a filament from the common carotid artery into the internal carotid and advancing it into the arterial circle, thereby occluding the middle cerebral artery. We measured regional cerebral blood flow by laser Doppler flowmetry, with a probe fixed on the skull throughout the ischemia until 10 min after reperfusion. Rectal temperature was measured and maintained at 37° C. The mice were killed 48 h after reperfusion. Serial cryostat sections 20 μm thick were traced using a computer-microscope system equipped with the Neurolucida program (MicroBrightField) and the volumes of the ischemic area and of the whole brain were calculated (blinded) with the Neuroexplorer program. XG−102 0.3=0.3 mg/kg,XG−102 1=1 mg/kg, XG−102 5=5 mg/kg
The infarct volume sizes (mm^3) after bolus iv administration of placebo and XG-102 0.3, […] 6 hours after reperfusion (30 minutes clamp) in an adult mice model were as follows.

[3] = target: T1, JNK3 (Homo sapiens, UniProt P53779); experiment: Solid phase kinase assay, JNK3 phosphorylation of Elk1; format: biochemical; conditions: dose response 0-25 μM, GST-ELK1 (aa 307-428)
T1 construct: host or cells: cell-free: rabbit reticulocyte lysate transcription/translation
T1 sequence (P53779 whole entry, species assumed, the tested form may be a part): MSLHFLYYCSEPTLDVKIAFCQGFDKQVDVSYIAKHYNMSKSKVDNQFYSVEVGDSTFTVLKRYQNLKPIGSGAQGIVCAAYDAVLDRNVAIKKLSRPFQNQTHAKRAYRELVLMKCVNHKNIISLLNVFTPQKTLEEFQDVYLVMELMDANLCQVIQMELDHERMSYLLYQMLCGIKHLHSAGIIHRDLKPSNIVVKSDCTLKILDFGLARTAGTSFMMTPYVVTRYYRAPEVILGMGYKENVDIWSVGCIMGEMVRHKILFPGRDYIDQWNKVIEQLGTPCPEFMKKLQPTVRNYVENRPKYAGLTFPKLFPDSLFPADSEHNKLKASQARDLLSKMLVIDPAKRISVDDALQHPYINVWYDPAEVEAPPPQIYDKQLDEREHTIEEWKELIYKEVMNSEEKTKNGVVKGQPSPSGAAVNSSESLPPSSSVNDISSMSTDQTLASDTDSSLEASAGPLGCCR
Protocol: (§1) The effects of the peptides on JNKs-mediated phosphorylation of their target transcription factors were investigated in vitro. Recombinant and non activated JNK1, JNK2 and JNK3 were produced using a TRANSCRIPTION AND TRANSLATION rabbit reticulocyte lysate kit (Promega) and used in solid phase kinase assays with c-Jun, ATF2 and Elk1, either alone or fused to glutathione-S-transferase (GST), as substrates. Dose response studies were performed wherein inventive L-TAT or L-TAT-IB1(s) peptides (0-25 μM) were mixed with the recombinant JNK1, JNK2, or JNK3 kinases in reaction buffer (20 mM Tris-acetate, 1 mM EGTA, 10 mM p-nitrophenyl-phosphate (pNPP), 5 mM sodium pyrophosphate, 10 mM p-glycerophosphate, 1 mM dithiothreitol) for 20 minutes. The kinase reactions were then initiated by the addition of 10 mM MgCl2 and 5 pCi […] and 1 μg of either GST-Jun (aa 1-89), GST-AFT2 (aa 1-96) or GST-ELK1 (aa 307-428). GST-fusion proteins were purchased from Stratagene (La Jolla, Calif.).
Ten μL of glutathione-agarose beads were also added to the mixture. Reaction products were then separated by SDS-PAGE on a denaturing 10% polyacrylamide gel. […] The ability of D-TAT, inventive D-TAT-IB1(s) and inventive L-TAT-IB1(s) peptides (0-250 μM dosage study) to inhibit GST-Jun (aa 1-73) phosphorylation by recombinant JNK1, JNK2, and JNKS by were analyzed as described above. […]

[4] = tested on: recombinant JNK1, JNK2, or JNK3 kinases; experiment: Solid phase kinase assay, phosphorylation of c-Jun, ATF2 and Elk1 by recombinant JNKs; format: biochemical
Protocol: as §1
Ten μL of glutathione-agarose beads were also added to the mixture. Reaction products were then separated by SDS-PAGE on a denaturing 10% polyacrylamide gel. Gels were dried and subsequently exposed to X-ray films (Kodak). […] The ability of D-TAT, inventive D-TAT-IB1(s) and inventive L-TAT-IB1(s) peptides (0-250 μM dosage study) to inhibit GST-Jun (aa 1-73) phosphorylation by recombinant JNK1, JNK2, and JNKS by were analyzed as described above. Overall, D-TAT-IB1(s) peptide decreased JNK-mediated phosphorylation of c-Jun, but at levels approximately 10-20 fold less efficiently than L-TAT-IB1(s).

[5] = tested on: JNK signaling; experiment: Heterologous GAL4 system (GAL-Jun / 5xGAL-LUC luciferase reporter) in HeLa cells with MKK4/MKK7 activation of JNK; format: cell-based; conditions: peptide 1 μM
Excerpt: To determine whether the inventive cell-permeable peptides could block JNK signaling in vivo, we used a heterologous GAL4 system. HeLa cells, cultured as described above, were co-transfected with the 5×GAL-LUC reporter vector together with the GAL-Jun expression construct (Stratagene) comprising the activation domain of c-Jun (amino acids 1-89) linked to the GAL4 DNA-binding domain. Activation of JNK was achieved by the co-transfection of vectors expressing the directly upstream kinases MKK4 and MKK7 (see Whitmarsh et al., Science 285: 1578 (1999)). Briefly, 3×10^5 cells were transfected with the plasmids in 3.5-cm dishes using DOTAP (Boehringer Mannheim) following instructions from the manufacturer. For experiments involving GAL-Jun, 20 ng of the plasmid was transfected with 1 μg of the reporter plasmid pFR-Luc (Stratagene) and 0.5 μg of either MKK4 or MKK7 expressing plasmids. Three hours following transfection, cell media were changed and TAT and TAT-IB1(s) peptides (1 μM) were added. The luciferase activities were measured 16 hours later using the “Dual Reporter System” from Promega after normalization to protein content. […] Because HeLa cells express JNK1 and JNK2 isoforms but not JNK3, we transfected cells with JNK3.

[6] = tested on: βTC-3 cells; experiment: IL-1β induced pancreatic β-cell death, peptide treatment, propidium iodide / Hoechst 33342 staining; format: cell-based
Protocol: We investigated the effects of the inventive L-TAT-IB(s) peptides on the promotion of β-cell apoptosis elicited by IL-1. βTC-3 cell cultures were incubated for 30 minutes with 1 μM of inventive L-TAT-IB1(s) peptides followed by 10 ng/mL of IL-1. A second addition of peptide (1 μM) was performed 24 hours later. Apoptotic cells were counted after two days of incubation with IL-1 β using propidium iodide (red stained cell are dead cells) and Hoechst 33342 (blue stained cell are cells with intact plasma membrane) nuclear staining.
Long term inhibition of IL-1 induced cells death was examined by treating βTC-3 cells as described above, except that incubation of the cells with the peptides and IL-1 β was sustained for 12 days. Additional peptides (1 μM) were added each day and additional IL-1 β (10 ng/mL) was added every 2 days. […] Taken together, these experiments provide evidence that inventive TAT-IB(s) peptides are biologically active molecules able to prevent the effects of JNK signaling on cell fate.
Inhibition of IL-1 β induced pancreatic β-cell death by the inventive D-TAT-IB1(s) peptide was analyzed. βTC-3 cells were incubated as described above for 30 minutes with one single addition of the indicated peptides (1, μM), then IL-1 (10 ng/ml) was added.
Apoptotic cells were then counted after two days of incubation with IL-1 β by use of Propidium Iodide and Hoechst 33342 nuclear staining. A minimum of 1,000 cells were counted for each experiment. Standard Error of the Means (SEM) are indicated, n=5.
Long term inhibition of IL-1P induced cell-death by the D-TAT-IB1 peptide was also analyzed. βTC-3 cells were incubated as above for 30 minutes with one single addition of the indicated peptides (1 μM), then IL-1 β (10 ng/ml) was added, followed by addition of the cytokine every two days. Apoptotic cells were then counted after 15 days of incubation with IL-1 by use of propidium iodide and Hoechst 33342 nuclear staining. […] A minimum of 1.000 cells were counted for each experiment.

[7] = tested on: activated JNKs; experiment: c-Jun phosphorylation by activated JNKs pulled down with GST-Jun from UV-light irradiated HeLa cells or IL-1β treated βTC-3 cells; format: biochemical; conditions: peptide 25 μM for 20 minutes
Protocol: The effects of the L-TAT or inventive L-TAT-IB1(s) peptides on JNKs activated by stressful stimuli were evaluated using GST-Jun to pull down JNKs from UV-light irradiated HeLa cells or IL-1 β treated PTC cells. PTC cells were cultured as described above. HeLa cells were cultured in DMEM medium supplemented with 10% Fetal Calf Serum, 100 μg/mL Streptomycin, 100 units/ml Penicillin and 2 mM Glutamine. One hour prior to being used for cell extract preparation, PTC cells were activated with IL-1 β as described above, whereas HeLa cells were activated by UV-light (20 J/m^2). Cell extracts were prepared from control, UV-light irradiated HeLa cells and IL-1β treated βTC-3 cells by scraping the cell cultures in lysis buffer (20 mM Tris-acetate, 1 mM EGTA, 1% Triton X-100, 10 mM p-nitrophenyl-phosphate, 5 mM sodium pyrophosphate, 10 mMP-glycerophosphate, 1 mM dithiothreitol). Debris was removed by centrifugation for five minutes at 15,000 rpm in an SS-34 Beckman rotor. One-hundred μg extracts were incubated for one hour at room temperature with one μg GST-jun (amino acids 1-89) and 10 μL of glutathione-agarose beads (Sigma). Following four washes with the scraping buffer, the beads were resuspended in the same buffer supplemented with L-TAT or inventive L-TAT-IB1(s) peptides (25 μM) for 20 minutes. […]

[8] = tested on: βTC-3 cell cultures; format: cell-based
Protocol: The ability of the L- and D-enantiomeric forms of TAT and inventive TAT-IB1(s) peptides (“TAT-IB peptides”) to enter cells was evaluated. L-TAT, D-TAT, inventive L-TAT-IB1(s), and inventive D-TAT-IB1(s) peptides [SEQ ID NOs: 5, 6, 9 and 12, respectively] were labeled by N-terminal addition of a glycine residue conjugated to fluorescein. Labeled peptides (1 μM) were added to βTC-3 cell cultures, which were maintained as described in Example 3. At predetermined times cells were washed with PBS and fixed for five minutes in ice-cold methanol-acetone (1:1) before being examined under a fluorescence microscope. Fluorescein-labeled BSA (1 μM, 12 moles/mole BSA) was used as a control.
Little to no signal was present at 48 hours.
Fluorescent signals from these all-D retro-inverso peptides were still very strong 1 week later, and the signal was only slightly diminished at 2 weeks post treatment.

IPSPSVEEPHKHRPTTLRLTTLGAQDS (IPSPSVEEPHKHRPTTLRLTTLGAQDS) [1B2-long]
efficiency in binding JNK relative to c-Jun or ATF2 [1]: approximately 100 fold

NH2-DQSRPVQPFLNLTTPRKPRPPRRRQRRKKRG-COOH (H-[dD][dQ][dS][dR][dP][dV][dQ][dP][dF][dL][dN][dL][dT][dT][dP][dR][dK][dP][dR][dP][dP][dR][dR][dR][dQ][dR][dR][dK][dK][dR]G-OH) [XG102]
infarct volume sizes, moyenne ([2]; 0.3 mg/kg bolus iv 6 hours after reperfusion (30 minutes clamp), n = 5, 48 h after reperfusion): 16 mm^3 | infarct volume sizes, moyenne ([2]; 1 mg/kg bolus iv 6 hours after reperfusion (30 minutes clamp), n = 1, 48 h after reperfusion): 16 mm^3 | infarct volume sizes, moyenne ([2]; XG102 3 group, bolus iv 6 hours after reperfusion (30 minutes clamp), n = 5, 48 h after reperfusion): 15 mm^3

NH2-GRKKRRQRRRPPRPKRPTTLNLFPQVPRSQD-COOH (H-GRKKRRQRRRPPRPKRPTTLNLFPQVPRSQD-OH) [TAT-IB(s)]
inhibition of JNK3 phosphorylation of Elk1 [3]: absence of TAT-IB(s) inhibition of JNKS phosphorylation of Elk1 | inhibition of JNK family phosphorylation of target transcription factors, overall [4]: superior effects in inhibiting JNK family phosphorylation of their target transcription factors | peptide dose giving nearly complete inhibition of c-Jun, ATF2 and Elk1 phosphorylation by JNKs ([4]; dose response 0-25 μM, GST-Jun (aa 1-89), GST-AFT2 (aa 1-96), GST-ELK1 (aa 307-428)): ≥ 2.5 µM | activation of c-Jun (luciferase) in cells transfected with JNK3 ([5]; HeLa cells transfected with JNK3): inhibited JNK2 mediated activation of c-Jun | activation of c-Jun (luciferase) following MKK4 and MKK7 mediated activation of JNK ([5]; luciferase 16 hours later): blocked activation of c-Jun following MKK4 and MKK7 mediated activation of JNK | inhibition of IL-1 induced apoptosis ([6]; 1 μM, second addition at 24 hours, IL-1 10 ng/mL, two days): inhibited IL-1-induced apoptosis of βTC-3 cells | long term inhibition of IL-1 induced cell death ([6]; 12 days, peptide 1 μM added each day, IL-1β 10 ng/mL every 2 days): confers strong protection against apoptosis | long term inhibition of IL-1β induced cell-death ([6]; one single addition 1 μM, IL-1β 10 ng/ml every two days, 15 days, listed as TAT-IB 1): does not confer long-term protection | prevention of c-Jun phosphorylation by activated JNKs [7]: efficiently prevented phosphorylation of c-Jun by activated JNKs

NH2-RRRQRRKKRG-COOH (D-amino acids) [D-TAT, reference compound]
stability inside the cells [8]: extremely stable inside the cells

PGTGCGDTYRPKRPTTLNLFPQVPRSQDT (PGTGCGDTYRPKRPTTLNLFPQVPRSQDT) [IB1-long]
efficiency in binding JNK relative to c-Jun or ATF2 [1]: approximately 100 fold

TDQSRPVQPFLNLTTPRKPRYTDPPRRRQRRKKRG (TDQSRPVQPFLNLTTPRKPRYTDPPRRRQRRKKRG) [D-TAT-IB1, reference compound]
inhibition of IL-1β induced apoptosis ([6]; one single addition 1 μM, IL-1 10 ng/ml, two days, n=5): decreased IL-1 induced apoptosis to a similar extent as L-TAT-IB peptides
